This note sets out measurements from US20250114356A1, “INDAZOLE BASED COMPOUNDS AND ASSOCIATED METHODS OF USE” (Arvinas Operations, Inc., priority 2020, published 2025).

The term DC50 denotes the concentration giving 50% degradation. For orientation: Dmax means the largest share of the target that was removed.

Assay [1] addresses T1, G2019S LRRK2 (Homo sapiens, UniProt Q5S007, G2019S).
T1 construct: expressed in transfected cells; host or cells: HEK293 (ATCC CRL-1573), transient transfection, ubiquitin promoter
As to the kind of experiment: LRRK2 degradation assay, G2019S LRRK2-HiBit expressed from plasmid in HEK293 cells. In kind it is cell-based. To be noted: HEK293 cells transfected with HiBit-tagged G2019S LRRK2, 24 hours compound incubation. In a few lines: (§1)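 HEK293 cells co-transfected with ubiquitin-promoter C-terminal HiBit-tagged wild-type or G2019S LRRK2 plus firefly luciferase, then treated with compound dose-responses for 24 hours at 37° C. HiBit/firefly luciferase ratio (dual Nano-Glo read) normalized to % DMSO median; DC50 and Dmax fitted per plate, 6 replicates over two days.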
On the technique in general: With HiBiT, luminescence reflects the tagged protein that the partner subunit can reach.

Assay [2] deals with T2, wildtype LRRK2 (Homo sapiens, UniProt Q5S007).
T2 construct: expressed in transfected cells; host or cells: HEK293 (ATCC CRL-1573), transient transfection, ubiquitin promoter
T2 sequence (Q5S007 whole entry): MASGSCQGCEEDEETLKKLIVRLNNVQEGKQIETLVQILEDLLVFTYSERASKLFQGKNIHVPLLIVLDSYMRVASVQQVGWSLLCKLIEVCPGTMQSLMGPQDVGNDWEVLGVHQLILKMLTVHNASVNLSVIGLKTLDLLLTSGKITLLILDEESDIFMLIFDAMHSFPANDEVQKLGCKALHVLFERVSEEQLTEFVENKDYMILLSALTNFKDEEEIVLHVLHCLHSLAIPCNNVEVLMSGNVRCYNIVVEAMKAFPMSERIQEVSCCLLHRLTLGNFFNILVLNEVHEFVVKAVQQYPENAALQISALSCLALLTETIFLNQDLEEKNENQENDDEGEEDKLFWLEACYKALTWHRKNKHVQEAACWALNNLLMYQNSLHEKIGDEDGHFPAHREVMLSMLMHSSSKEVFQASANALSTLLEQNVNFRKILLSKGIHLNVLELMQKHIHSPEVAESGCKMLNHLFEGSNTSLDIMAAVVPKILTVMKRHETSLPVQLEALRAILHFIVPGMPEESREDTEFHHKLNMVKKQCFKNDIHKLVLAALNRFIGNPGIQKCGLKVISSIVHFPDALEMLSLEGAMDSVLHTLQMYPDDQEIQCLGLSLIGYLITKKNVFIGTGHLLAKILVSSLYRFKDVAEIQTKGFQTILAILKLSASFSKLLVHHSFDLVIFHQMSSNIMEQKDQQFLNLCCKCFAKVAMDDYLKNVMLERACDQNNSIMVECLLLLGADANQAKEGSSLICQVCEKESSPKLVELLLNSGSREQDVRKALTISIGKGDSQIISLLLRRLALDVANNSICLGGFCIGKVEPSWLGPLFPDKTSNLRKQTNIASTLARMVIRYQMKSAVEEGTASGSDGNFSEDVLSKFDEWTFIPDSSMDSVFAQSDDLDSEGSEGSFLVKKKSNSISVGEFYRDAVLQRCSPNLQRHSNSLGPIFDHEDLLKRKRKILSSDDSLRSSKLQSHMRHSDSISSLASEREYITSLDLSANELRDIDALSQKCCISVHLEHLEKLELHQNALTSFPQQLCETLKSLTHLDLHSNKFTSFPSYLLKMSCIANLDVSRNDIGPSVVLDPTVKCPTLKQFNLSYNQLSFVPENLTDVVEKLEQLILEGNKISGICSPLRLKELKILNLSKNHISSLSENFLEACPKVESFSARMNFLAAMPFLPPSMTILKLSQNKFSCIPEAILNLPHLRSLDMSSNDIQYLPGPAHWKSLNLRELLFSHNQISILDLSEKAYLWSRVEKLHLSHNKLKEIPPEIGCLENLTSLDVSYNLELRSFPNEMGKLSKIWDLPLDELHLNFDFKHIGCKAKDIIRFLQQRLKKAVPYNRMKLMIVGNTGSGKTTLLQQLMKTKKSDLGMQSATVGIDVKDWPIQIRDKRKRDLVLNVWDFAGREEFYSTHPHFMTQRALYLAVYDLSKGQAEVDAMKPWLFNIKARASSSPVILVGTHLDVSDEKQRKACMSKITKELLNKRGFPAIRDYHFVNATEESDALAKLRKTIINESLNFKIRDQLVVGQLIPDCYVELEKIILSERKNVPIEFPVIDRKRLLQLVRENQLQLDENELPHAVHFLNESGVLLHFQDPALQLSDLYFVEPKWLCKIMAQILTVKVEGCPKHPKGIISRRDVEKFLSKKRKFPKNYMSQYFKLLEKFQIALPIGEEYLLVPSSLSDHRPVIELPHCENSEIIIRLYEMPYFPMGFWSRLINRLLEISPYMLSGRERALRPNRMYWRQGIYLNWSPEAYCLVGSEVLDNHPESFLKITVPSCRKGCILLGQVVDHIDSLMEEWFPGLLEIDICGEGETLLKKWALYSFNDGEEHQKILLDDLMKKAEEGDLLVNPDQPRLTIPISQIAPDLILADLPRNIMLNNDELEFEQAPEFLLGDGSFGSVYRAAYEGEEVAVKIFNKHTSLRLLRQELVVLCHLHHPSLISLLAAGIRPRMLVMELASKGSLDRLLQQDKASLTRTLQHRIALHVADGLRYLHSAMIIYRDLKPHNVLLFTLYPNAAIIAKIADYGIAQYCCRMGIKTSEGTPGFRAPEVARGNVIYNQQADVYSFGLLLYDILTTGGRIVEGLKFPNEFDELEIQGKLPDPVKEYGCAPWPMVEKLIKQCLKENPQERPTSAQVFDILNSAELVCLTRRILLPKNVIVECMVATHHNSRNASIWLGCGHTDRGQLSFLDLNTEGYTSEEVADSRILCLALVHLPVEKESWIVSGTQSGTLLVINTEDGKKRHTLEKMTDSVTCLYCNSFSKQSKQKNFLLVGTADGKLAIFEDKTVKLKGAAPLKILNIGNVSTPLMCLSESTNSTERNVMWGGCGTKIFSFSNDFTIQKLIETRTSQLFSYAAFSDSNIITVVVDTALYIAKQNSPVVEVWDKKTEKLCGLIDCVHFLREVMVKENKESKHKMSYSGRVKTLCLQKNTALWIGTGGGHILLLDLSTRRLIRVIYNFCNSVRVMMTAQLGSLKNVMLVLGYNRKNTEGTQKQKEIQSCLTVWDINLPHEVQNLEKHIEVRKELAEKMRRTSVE
Put plainly: LRRK2 degradation assay, wildtype LRRK2-HiBit expressed from plasmid in HEK293 cells. Format: cell-based. To be noted: HEK293 cells transfected with HiBit-tagged wildtype LRRK2, 24 hours compound incubation; for Dmax: read-out: **WT Dmax (%); for DC50: read-out: *WT DC50. The essentials:
as §1

T1 sequence (Q5S007 whole entry G2019S): as the sequence (Q5S007 whole entry) above, with G2019S counted along it

On to `CC(C)Oc1ccc2[nH]nc(-c3cc(N4CCN(CCN5CCC(CN6CCN(c7ccc8c(c7)CN(C7CCC(=O)NC7=O)C8=O)CC6)CC5)[C@@H](C)C4)ncn3)c2c1` (stereo partly drawn) [compound 31, 3-(5-{4-[(1-{2-[(2S)-2-methyl-4-{6-[5-(propan-2-yloxy)-1H-indazol-3-yl]pyrimidin-4-yl}piperazin-1-yl]ethyl}piperidin-4-yl)methyl]piperazin-1-yl}-1-oxo-2,3-dihydro-1H-isoindol-2-yl)piperidine-2,6-dione], for which the DC50 in assay [1] is 10 to 50 nM; in assay [2], less than 10 nM. Further, the maximal degradation (Dmax) in assay [1] and in assay [2] was no less than 70% throughout.

Consider `CC(C)Oc1ccc2[nH]nc(-c3cc(N4CCN(CCN5CC(OCCOc6ccc7c(c6)C(=O)N(C6CCC(=O)NC6=O)C7=O)C5)[C@@H](C)C4)ncn3)c2c1` (stereo partly drawn) [compound 32, 2-(2,6-dioxopiperidin-3-yl)-5-{2-[(1-{2-[(2S)-2-methyl-4-{6-[5-(propan-2-yloxy)-1H-indazol-3-yl]pyrimidin-4-yl}piperazin-1-yl]ethyl}azetidin-3-yl)oxy]ethoxy}-2,3-dihydro-1H-isoindole-1,3-dione], for which, in assay [1], the 50% degradation concentration (DC50) was no less than 100 nM and the Dmax was less than 50%. In assay [2], the Dmax is less than 50% and the DC50 is no less than 100 nM.

Take `C[C@H]1CN(c2cc(-c3n[nH]c4ccc(OC5(C)CC5)cc34)ncn2)CCN1CCOC1CCN(CC2CCN(c3ccc4c(c3)C(=O)N(C3CCC(=O)NC3=O)C4=O)CC2)CC1` (stereo partly drawn) [compound 33, 2-(2,6-dioxopiperidin-3-yl)-5-{4-[(4-{2-[(2S)-2-methyl-4-{6-[5-(1-methylcyclopropoxy)-1H-indazol-3-yl]pyrimidin-4-yl}piperazin-1-yl]ethoxy}piperidin-1-yl)methyl]piperidin-1-yl}-2,3-dihydro-1H-isoindole-1,3-dione]: the half-maximal degradation concentration (DC50) in assay [1] is less than 10 nM; in assay [2], 10 to 50 nM. Moreover, the Dmax in assay [1] and in assay [2] was no less than 70% each time.

Turning to `CC(C)Oc1ccc2[nH]nc(-c3cc(N4CCN(CCOCCC#CCN5CCN(c6ccc7c(c6)C(=O)N(C6CCC(=O)NC6=O)C7=O)CC5)[C@@H](C)C4)ncn3)c2c1` (stereo partly drawn) [compound 34, 2-(2,6-dioxopiperidin-3-yl)-5-[4-(5-{2-[(2S)-2-methyl-4-{6-[5-(propan-2-yloxy)-1H-indazol-3-yl]pyrimidin-4-yl}piperazin-1-yl]ethoxy}pent-2-yn-1-yl)piperazin-1-yl]-2,3-dihydro-1H-isoindole-1,3-dione], in assay [1], the DC50 was no less than 100 nM and the Dmax fell in the range of 50 to 70%. Further, in assay [2], the Dmax is no less than 70% and the DC50 lay in the range of 50 to 100 nM.

For `CC(C)Oc1ccc2[nH]nc(-c3cc(N4CCN(CCN5CC6(CN(CCOc7ccc8c(c7)C(=O)N(C7CCC(=O)NC7=O)C8=O)C6)C5)[C@@H](C)C4)ncn3)c2c1` (stereo partly drawn) [compound 35, 2-(2,6-dioxopiperidin-3-yl)-5-[2-(6-{2-[(2S)-2-methyl-4-{6-[5-(propan-2-yloxy)-1H-indazol-3-yl]pyrimidin-4-yl}piperazin-1-yl]ethyl}-2,6-diazaspiro[3.3]heptan-2-yl)ethoxy]-2,3-dihydro-1H-isoindole-1,3-dione], in assay [1], the DC50 is 50 to 100 nM and the Dmax was less than 50%. Further, in assay [2], the Dmax was less than 50% and the DC50 was 50 to 100 nM.

For `CC(C)Oc1ccc2[nH]nc(-c3cc(N4CCN(CCN(C)CCCN5CCN(c6ccc7c(c6)C(=O)N(C6CCC(=O)NC6=O)C7=O)CC5)[C@@H](C)C4)ncn3)c2c1` (stereo partly drawn) [compound 36, 2-(2,6-dioxopiperidin-3-yl)-5-(4-{3-[methyl({2-[(2S)-2-methyl-4-{6-[5-(propan-2-yloxy)-1H-indazol-3-yl]pyrimidin-4-yl}piperazin-1-yl]ethyl})amino]propyl}piperazin-1-yl)-2,3-dihydro-1H-isoindole-1,3-dione], in assay [1], the DC50 fell in the range of 10 to 50 nM and the maximal degradation (Dmax) is no less than 70%. For the same compound, in assay [2], the Dmax is no less than 70% and the DC50 was in the range of 10 to 50 nM.

In assay [1], `CC(C)Oc1ccc2[nH]nc(-c3cc(N4CCN(CCN(C)CCN5CCN(c6ccc7c(c6)C(=O)N(C6CCC(=O)NC6=O)C7=O)CC5)[C@@H](C)C4)ncn3)c2c1` (stereo partly drawn) [compound 37, 2-(2,6-dioxopiperidin-3-yl)-5-(4-{2-[methyl({2-[(2S)-2-methyl-4-{6-[5-(propan-2-yloxy)-1H-indazol-3-yl]pyrimidin-4-yl}piperazin-1-yl]ethyl})amino]ethyl}piperazin-1-yl)-2,3-dihydro-1H-isoindole-1,3-dione] displayed a DC50 of 50 to 100 nM and a Dmax of 50 to 70%. In addition, in assay [2], the Dmax lay in the range of 50 to 70% and the DC50 was no less than 100 nM.

In assay [1], `CC(C)Oc1ccc2[nH]nc(-c3cc(N4CCN(CCCN(C)CCCN5CCN(c6ccc7c(c6)C(=O)N(C6CCC(=O)NC6=O)C7=O)CC5)[C@@H](C)C4)ncn3)c2c1` (stereo partly drawn) [compound 38, 2-(2,6-dioxopiperidin-3-yl)-5-(4-{3-[methyl({3-[(2S)-2-methyl-4-{6-[5-(propan-2-yloxy)-1H-indazol-3-yl]pyrimidin-4-yl}piperazin-1-yl]propyl})amino]propyl}piperazin-1-yl)-2,3-dihydro-1H-isoindole-1,3-dione] displayed a DC50 of no less than 100 nM and a maximal degradation (Dmax) of no less than 70%. Also, in assay [2], the Dmax was no less than 70% and the DC50 is 50 to 100 nM.

`CC(C)Oc1ccc2[nH]nc(-c3cc(N4CCN(CCN5CCN(CC6CCN(c7ccc8c(c7)C(=O)N(C7CCC(=O)NC7=O)C8=O)CC6)CC5)CC4)ncn3)c2c1` (stereo not drawn) [compound 39, 2-(2,6-dioxopiperidin-3-yl)-5-(4-((4-(2-(4-(6-(5-isopropoxy-1H-indazol-3-yl)pyrimidin-4-yl)piperazin-1-yl)ethyl)piperazin-1-yl)methyl)piperidin-1-yl)isoindoline-1,3-dione]: the half-maximal degradation concentration (DC50) in assay [1] is 10 to 50 nM; in assay [2], less than 10 nM. The Dmax in assay [1] and in assay [2] was no less than 70% throughout.

In assay [1], `CC(C)Oc1ccc2[nH]nc(-c3cc(N4CCN(CC(F)(F)C5CCN(CC6CCN(c7ccc8c(c7)C(=O)N(C7CCC(=O)NC7=O)C8=O)CC6)CC5)CC4)ncn3)c2c1` (stereo not drawn) [compound 40, 5-(4-((4-(1,1-difluoro-2-(4-(6-(5-isopropoxy-1H-indazol-3-yl)pyrimidin-4-yl)piperazin-1-yl)ethyl)piperidin-1-yl)methyl)piperidin-1-yl)-2-(2,6-dioxopiperidin-3-yl)isoindoline-1,3-dione] gave a DC50 of 10 to 50 nM and a Dmax of 50 to 70%. In assay [2], the Dmax is no less than 70% and the DC50 lay within 10 to 50 nM.

Turning to `CC(C)Oc1ccc2[nH]nc(-c3cc(N4CCN(CCC5CCN(CC6CCN(c7ccc8c(c7)C(=O)N(C7CCC(=O)NC7=O)C8=O)CC6)CC5)CC4)ncn3)c2c1` (stereo not drawn) [compound 41, 2-(2,6-dioxopiperidin-3-yl)-5-(4-((4-(2-(4-(6-(5-isopropoxy-1H-indazol-3-yl)pyrimidin-4-yl)piperazin-1-yl)ethyl)piperidin-1-yl)methyl)piperidin-1-yl)isoindoline-1,3-dione], the half-maximal degradation concentration (DC50) in assay [1] and in assay [2] was 10 to 50 nM each time. The maximal degradation (Dmax) in assay [1] and in assay [2] was 50 to 70% throughout.

As for `CC(C)Oc1ccc2[nH]nc(-c3cc(N4CCN(CC[C@H]5CCN(CC6CCN(c7ccc8c(c7)C(=O)N(C7CCC(=O)NC7=O)C8=O)CC6)C5)CC4)ncn3)c2c1` (stereo partly drawn) [compound 42, 2-(2,6-dioxopiperidin-3-yl)-5-(4-(((R)-3-(2-(4-(6-(5-isopropoxy-1H-indazol-3-yl)pyrimidin-4-yl)piperazin-1-yl)ethyl)pyrrolidin-1-yl)methyl)piperidin-1-yl)isoindoline-1,3-dione], in assay [1], the DC50 fell in the range of 10 to 50 nM and the Dmax was in the range of 50 to 70%. Further, in assay [2], the maximal degradation (Dmax) was in the range of 50 to 70% and the DC50 is 10 to 50 nM.

For the compound `CC(C)Oc1ccc2[nH]nc(-c3cc(N4CCN(CC[C@@H]5CCN(CC6CCN(c7ccc8c(c7)C(=O)N(C7CCC(=O)NC7=O)C8=O)CC6)C5)CC4)ncn3)c2c1` (stereo partly drawn) [compound 43, 2-(2,6-dioxopiperidin-3-yl)-5-(4-(((S)-3-(2-(4-(6-(5-isopropoxy-1H-indazol-3-yl)pyrimidin-4-yl)piperazin-1-yl)ethyl)pyrrolidin-1-yl)methyl)piperidin-1-yl)isoindoline-1,3-dione], in assay [1], the DC50 was 10 to 50 nM and the Dmax lay within 50 to 70%. Also, in assay [2], the Dmax is no less than 70% and the DC50 was in the range of 10 to 50 nM.

Regarding `CC(C)Oc1ccc2[nH]nc(-c3cc(N4CCN(CCN5CC(C6CCN(c7ccc8c(c7)C(=O)N(C7CCC(=O)NC7=O)C8=O)CC6)C5)CC4)ncn3)c2c1` (stereo not drawn) [compound 44, 2-(2,6-dioxopiperidin-3-yl)-5-(4-(1-(2-(4-(6-(5-isopropoxy-1H-indazol-3-yl)pyrimidin-4-yl)piperazin-1-yl)ethyl)azetidin-3-yl)piperidin-1-yl)isoindoline-1,3-dione], in assay [1], the DC50 lay within 10 to 50 nM and the Dmax is 50 to 70%. Moreover, in assay [2], the Dmax was in the range of 50 to 70% and the DC50 lay within 10 to 50 nM.

Take `CC(C)Oc1ccc2[nH]nc(-c3cc(N4CCN(CCN5CC(CN6CCN(c7ccc8c(c7)C(=O)N(C7CCC(=O)NC7=O)C8=O)CC6)C5)CC4)ncn3)c2c1` (stereo not drawn) [compound 45, 2-(2,6-dioxopiperidin-3-yl)-5-(4-((1-(2-(4-(6-(5-isopropoxy-1H-indazol-3-yl)pyrimidin-4-yl)piperazin-1-yl)ethyl)azetidin-3-yl)methyl)piperazin-1-yl)isoindoline-1,3-dione]: in assay [1], the DC50 is no less than 100 nM and the maximal degradation (Dmax) was less than 50%. Also, in assay [2], the Dmax was less than 50% and the DC50 was in the range of 10 to 50 nM.
